According to US10450327B2, “Epidithiodioxopiperazine compound or its derivatives, and the use thereof” (priority 2011, dated 2019):

Legend:
PDGFRβ and PLCγ1 = assay: PDGF-induced signaling, immunoblot, PrxII knocked down HASMCs; assay type: cell-based, human
Experimental: The cells were rinsed with an ice-cold phosphate buffered saline (PBS) solution and then lysed in an extraction buffer solution containing 20 mM Hepes (pH 7.0), 1% Triton X-100, 150 mM NaCl, 10% glycerol, 1 mM EDTA, 2 mM EGTA, 1 mM DTT, 5 mM Na3VO4, 5 mM NaF, 1 mM AEBSF, aprotinin (5 μg/ml), and leupeptin (5 μg/ml). After being centrifuged at 12,000×g, the purified cell extracts were used for immunoblotting. In order to adjust the loading, the membranes were stripped by shaking them for 30 minutes at 60° C. in 67 mM Tris (pH 6.7), 2% SDS, and 100 mM 2-mercaptoethanol solution, and reprobed with an appropriate pan antibody.
In addition, the regulatory effects of GT on the PDGFRβ- and VEGFR2-mediated signaling pathway were examined. The GT treatment in HASMCs was quite different from PDGF-induced tyrosine phosphorylation that was enhanced by the PrxII knockdown (FIG. 12a). […] Conversely, the GT treatment in HAECs restored the VEGF-dependent activation of VEGFR2 and ERK that had been diminished by the PrxII knockdown (FIG. 12b). The effects of GT in vascular cell fuction were further validated.

[1] = tested on: left carotid artery of a PrxII−/− mouse; assay: Wire-injured carotid artery of PrxII−/− mouse; assay type: in vivo; conditions: filter paper strip soaked in GT solution, 30 minutes; 10th day after injury
Experimental: In addition, in order to identify the effects of GT on vascular thickening in a PrxII−/− mouse, left carotid artery of a PrxII−/− mouse was damaged using a flexible wire. After the injury, a Whatman No. 1 filter paper strip was soaked in a control vehicle or a GT solution, and the paper was attached to the surface of vascular epithelia for 30 minutes for the solution to permeate into the tissue. The mouse was recovered at the 10th day after the injury. As a result, the ratio of intima versus media measured from the HE-stained carotid artery sample was presented as mean+− standard error (n=8 per group, *p<0.01).

SK-MEL-28 (SK28) cells = assay: Melanoma proliferation and migration assay, SK28; assay type: cell-based, human; conditions: 100 nM, 1 hour pretreatment
Experimental: The extent of cell proliferation was measured using a WST-1 cell proliferation assay kit (Roche Diagnostics, USA) according to the protocol of the manufacturer. The number of cells was expressed as an absorbance value at 450 nm averaged from 3 wells after subtracting the turbidity at 600 nm. The chemotactic transmigration assay was performed in a 24-well Transwell culture chamber (Costar; polycarbonate membrane insert with 8-μm pore size). The bottom of the insert was coated with gelatin B (1 mg/ml) and air-dried for 1 hour. Retroviruses or transfection complexes were treated to melanoma cells (6×10^3). After 24 hours, the infected or transfected melanoma cells were serum-starved for 18 hours. A 20% FBS solution was added to bottom chambers including a basal medium containing 0.5% BSA. The upper chamber wells were each filled with a basal medium including 0.5% BSA. The Transwell chamber was incubated for 12 hours in a 37° C./5% CO2 incubator. After the incubation, the non-migrating cells at the top of the filter were removed. The cells that migrated onto the bottom of filter were fixed and stained with 0.6% hematoxylin and 0.5% eosin. The stained cells were photographed and counted. The number of migrating cells was averaged from 3 wells. […]

SK-MEL-5 (SK5) cells = assay: Melanoma proliferation and migration assay, SK5; assay type: cell-based, human; conditions: 100 nM, 1 hour pretreatment
Experimental: The extent of cell proliferation was measured using a WST-1 cell proliferation assay kit (Roche Diagnostics, USA) according to the protocol of the manufacturer. The number of cells was expressed as an absorbance value at 450 nm averaged from 3 wells after subtracting the turbidity at 600 nm. The chemotactic transmigration assay was performed in a 24-well Transwell culture chamber (Costar; polycarbonate membrane insert with 8-μm pore size). The bottom of the insert was coated with gelatin B (1 mg/ml) and air-dried for 1 hour. Retroviruses or transfection complexes were treated to melanoma cells (6×10^3). After 24 hours, the infected or transfected melanoma cells were serum-starved for 18 hours. A 20% FBS solution was added to bottom chambers including a basal medium containing 0.5% BSA. The upper chamber wells were each filled with a basal medium including 0.5% BSA. The Transwell chamber was incubated for 12 hours in a 37° C./5% CO2 incubator. After the incubation, the non-migrating cells at the top of the filter were removed. The cells that migrated onto the bottom of filter were fixed and stained with 0.6% hematoxylin and 0.5% eosin. The stained cells were photographed and counted. The number of migrating cells was averaged from 3 wells.

[2] = tested on: PDGFRβ, PLCγ1, VEGFR2 and ERK; assay: PDGF and VEGF signaling in vascular cells from PrxII−/− mouse; assay type: cell-based; conditions: cells separated from PrxII−/− mouse, PDGF-BB or VEGF-A 10 minutes
Experimental: Aortic vascular smooth muscle (A) and endothelial cells (B) were separated from a normal mouse and a PrxII−/− mouse, and cultured, and then treated with PDGF-BB and VEGF-A for 10 minutes each after either treating with GT or no treating. The activation of PDGFRβ, PLCγ1, VEGFR2 and ERK was analyzed using a phosphorylation-specific binding antibody for each protein.

B16F10 melanoma cells = assay: Metastasis of B16F10 melanoma cells to lung in mouse; assay type: in vivo
Experimental: After B16F10 cells were temporarily transfected with PrxII siRNA for 24 hours and trypsinized, the cells were resuspended in a Hank's balanced salt solution (HBSS). The cell suspension was injected by intravenous injection to a C57/BL6 mouse (1×10^6 cells per mouse). The mouse was sacrified after 10 days, and the lung was removed after transcardia perfusion-fixation with a heparinized saline solution including 3.7% formaldehyde. The removed lung was paraffin embedded and sectioned using a rotary microtome (Leica RM2255). Two serial tissue sections (4 μm in thickness) were stained with haematoxylin and eosin. The melanoma tumor nodules metastasized from the surface of the lung and the HE-stained tissue sections were counted. In order to verify the effects of gliotoxin (GT), chaetocin and chetomin, the melanoma cells were intravenously injected to the C57/BL6 mouse, and then gliotoxin (300 mg/kg) was intraperitoneally injected for 5 times over 10 days.

With `CN1C(=O)[C@]23CC4=CC=C[C@H](O)[C@H]4N2C(=O)[C@@]1(CO)SS3` [gliotoxin] as the molecule, how does the “level of PDGFRβ and PLCγ1 activation” value (PDGFRβ and PLCγ1) read?
The value was “diminished to the level of stimulated control group cells”.

And the “vascular thickening (ratio of intima versus media)” value [1]?
Its value is “markedly reduced”.

What about the “proliferation and migration responding to serum stimulation, SK28” value (SK-MEL-28 (SK28) cells) of the same molecule?
Its value is “reduced”.

And the “proliferation and migration responding to serum stimulation, SK5” value (SK-MEL-5 (SK5) cells)?
The value was “reduced”.

And the “effects on PDGF signaling in VSMC and VEGF signaling in VEC” value [2]?
The value was “opposed regulatory effects”.

And the “metastasis of B16F10 melanoma cells to lung (tumor nodules)” value (B16F10 melanoma cells; i.p. 5 times over 10 days after i.v. injection of B16F10 cells)?
The value was “significantly reduced”.

What about the “metastasis of PrxII-knocked down B16F10 to lung” value (B16F10 melanoma cells; mPrx2-1 siRNA-transfected cells, i.p. 5 times over 10 days) of the same molecule?
Its value is “more significantly reduced”.
